The values below come from patent publication US7294643B2, “UK-1 analogues: methods of preparation and use” (Board of Regents, The University of Texas System, priority 2002, dated 2007).

What is called IC50 is the point on the concentration scale where inhibition reaches its midpoint.

One assay deals with MCF-7 cells. As to the kind of experiment: alamarBlue cytotoxicity assay, MCF-7. The following applies: Homo sapiens, MCF7; MCF-7, alamarBlue, 72 h. Type of assay: cell-based. The protocol: (§1) Cytotoxicity Assays. Cell culture cytotoxicity assays were performed using the. alamarBlue method, as described by Ahmed et al., J. Immun. Methods 1994, 170, 211-224, which is incorporated herein by reference. Briefly, aliquots of 100 μL of cell suspension (1.0-2.5×10^3 cells) was placed in 96-well microtiter plates in an atmosphere of 5% CO2 at 37° C. After 24 hours, 100 μL of culture medium and 2 μL of compound in vehicle (culture media with 40% pyridine) or vehicle alone were added, and the plates incubated an additional 72 hours. The final pyridine concentration in all cases was 0.4%; at this pyridine concentration there was no affect on the growth of cells compared to cells in culture media without added pyridine. […] After the culture media had been removed from each well, 200 μL of fresh media and 20 μL of 90% alamarBlue reagent were added, followed by an additional 6 h incubation. The fluorescent intensity was measured using a Spectrafluor Plus plate reader with excitation at 530 nm and emission at 590 nm. Results are reported as IC50 values, the average concentration required to produce a decrease of fluorescent intensity of 50% relative to vehicle-treated controls in two separate determinations.

A further assay concerns BT-20. In words: alamarBlue cytotoxicity assay, BT-20. In kind it is cell-based. The following applies: Homo sapiens; BT-20, alamarBlue. The method, then:
as §1
For orientation: Resazurin is reduced to fluorescent resorufin, in cell work by metabolically active cells.

For a further assay, the system named is Pseudomonas aeruginosa. In words: Antimicrobial bioassay, P. aeruginosa. In kind it is cell-based. Conditions: concentrations up to 50 μg/mL.
Assay [1] in a line: Metal ion binding by continuous variation, Ca2+. The following applies: Ca^2+, methanol, 1:1 complex. The protocol: (§2) Previous work indicated the metal ion binding mechanism of UK-1, so the method of continuous variation was used to determine the ability of selected UK-1analogues to bind a variety of metal ions. Methanolic solutions of UK-1 or UK-1 analogues and metal ion salts [Ca(NO3)2, Mg(NO3)2, Zn(NO3)2, or Fe(NO3)3] at various molar ratios, and 20 μM combined total concentration, were prepared and the absorbance at 418 nm was determined. […] Compound 2.1 does bind with Ca^2+ and Zn^2+ better than UK-1.
(§3) Continuous variation plots. A 100 μM solution of UK-1 or analogue and 100 AM solutions of Ca(NO3)2, Mg(NO3)2, Zn(NO3)2, or Fe(NO3)3 were prepared in methanol. From these stock solutions, 15 samples (1 mL) of varying mole fraction of the metal ion were prepared at a constant, combined concentration of 20 μM for the ligand and the metal ion. The change in absorbance was monitored from 500 to 200 nm for each sample using as a reference a 1 mL solution containing the same concentration of ligand as the sample being measured but without the metal ion. The maximum absorbance change was typically around 418 nm but varied somewhat for each metal ion. The absorbance at 418 nm was plotted as a function of the mole fraction of the metal ion and the maximum absorbance change was determined. The absorbance of a sample containing the metal ion concentration corresponding to this maximum change and a 15 fold excess of metal ion at this ligand concentration, subtracted from a reference containing the same concentration of ligand but no metal ion was used to normalize the curve and obtain the conditional formation constant as described in the paper to Likussar, W.; Boltz, D. F. Anal. Chem. 1971, 43, 1265-1272, which is incorporated herein by reference.

Assay [2] can be described thus: Metal ion binding by continuous variation, Fe3+. The following applies: Fe^3+, methanol, 1:1 complex. The method, then:
as §2, §3

Assay [3] concerns double-stranded DNA oligonucleotide. In words: DNA binding by ESI-MS. On the set-up: key: MetalDepend.: all ligand-DNA complex ions also contained a metal ion.; None: no ligand-DNA complex ions observed.; MetalIndepend.: ligand-DNA and ligand-DNA-metal ion complex ions observed. Conditions: ligand-DNA complex ions, presence or absence of added NiCl2.
Assay [4] has as its system gram-positive or gram negative bacteria. Conditions: gram-positive or gram negative bacteria, concentrations as large as 250 μM; cited from earlier work.

With `COC(=O)c1cccc2oc(-c3cccc4oc(-c5ccccc5O)nc34)nc12` [UK-1], the IC50 in the assay on MCF-7 cells came to 1600 nM; in the assay on BT-20, 170 nM. The antibacterial effect result with Pseudomonas aeruginosa is “no indication of any antibacterial effect”. Besides, the entries for the “Association constant for metal ion binding” value in assay [1] and in assay [2] were 40000 M⁻¹ and 250000 M⁻¹, respectively. For the same compound, the “DNA-Binding ESI-MS” value in assay [3] was “MetalDepend.^d”. For the same compound, the growth inhibition entry in assay [4] is reported as “does not inhibit the growth”.
